Tests used:
[1] = test system: cAMP-linked metabotropic glutamate receptors; assay: agonism of glutamate at cAMP-linked metabotropic glutamate receptors; type: cell-based; details: result in words only
[2] = test system: metabotropic glutamate receptors; assay: displacement of 1S,3R-ACPD-sensitive [3H]glutamate binding to rat brain cell membranes; details: crude membranes of rat forebrain
Experimental: The binding of [^3 H]glutamate was conducted with crude membranes of rat forebrain as described by Schoepp and True. Schoepp and True, Neuroscience Lett., 145, 100-104 (1992) and Wright et al., J. Neurochemistry 63:938-945 (1994).

agonist activity at cAMP-linked metabotropic glutamate receptors [1]	IC50 [2]	Structure (SMILES)
potent agonists	–	NC1(C(=O)O)COC2C(C(=O)O)C21 (single isomer, unassigned) [Example 2(g)]
potent agonists	–	NC1(C(=O)O)CSC2C(C(=O)O)C21 (stereo not drawn) [Example 4, 1SR,4RS,5RS,6RS-4-Amino-2-Thiabicyclo[3.1.0]hexane-4,6-dicarboxylic Acid]
potent agonists	55 nM	NC1(C(=O)O)COC2C(C(=O)O)C21 (stereo not drawn) [Example 1, 1SR,4SR,5RS,6SR-4-Amino-2-Oxabicyclo[3.1.0]hexane-4,6-dicarboxylic Acid]
